# Source: US4764461A, “Tellurium and selenium compounds for the induction of in vivo and in vitro production of cytokines” (priority 1987, dated 1988)
# “And” between values parts separate entries of the source, which are not always exact repeats. Equal values may be shown once. “Also recorded” adds a separate entry of the source.
# Legend:
# IL-2; spleen cells = experiment: In vitro IL-2 secretion of mouse spleen cells, CTLD assay (Example 17); format: cell-based, Balb/c mice; settings: IL-2 activity, 24 h; control 2,550
# Procedure: The compounds listed below were tested in vitro at various concentrations that ranged from 10 μg/ml cells to 1×10^-6 μg/ml of cell mixtures. Cells were obtained from spleens of male Balb/c mice 6-8 weeks of age. Spleens were pushed through a stainless steel 60 mesh strainer to separate cells.
# fibrosarcoma cells = experiment: Survival of mice with methylcholanthrene-induced fibrosarcoma cells (Example 6); format: in vivo, Balb-c mice; settings: until just after the increased dosage regimen (day 39)
# Procedure: Balb-c mice, age 7 weeks were injected with methylcholanthrene to induce the formation of fibrosarcoma cells according to the procedure of Example 5. The test animals were divided into two groups.
# (a) control (0.2 IP of 40% DMSO and 60% PBS)
# IL-2; mouse spleen cells = experiment: In vitro induction of IL-2 from mouse spleen cells (Example 7); format: cell-based, Balb-c mice; settings: baseline 4,000-5,000 CPM
# Procedure: (§1) This example describes the in vitro making of IL-2 and CSF from mouse spleen cells using the compound of Example 1 as the extrinsic stimulating agent.
# (§2) Spleens were removed from 15, male Balb-c mice 6 to 8 weeks of age. The spleen cells were pushed through stainless steel 60 mesh (U.S. standard) nets resting in […] Petri dishes containing PBS in order to separate the cells. The cells were then collected into centrifuge tubes and spun at 1000 rpm for 10 minutes. The supernatant was discarded and cells were treated with 5 ml of hypotonic buffer (0.15MNH4 Cl; 0.01M KHCO3 dissolved in double distilled water, pH 7.2) for exactly two minutes. Thereafter, PBS was added to the cells and the test tubes were centrifuged for 10 minutes at 1000 rpm. The cells were rinsed twice and counted in a heamocytometer using trypan blue to test for viability. The cells were brought to a concentration of 10^7 viable cells/ml. The cells were contacted with varying amounts of the compound of Example 1 in 1 ml of 40% DMSO 60% PBS.
# CSF; mouse spleen cells = experiment: In vitro induction of colony stimulating factor (CSF) from mouse spleen cells (Example 7); format: cell-based, Balb-c mice; settings: baseline 70-80 colonies/dish
# Procedure: as §1, §2
# [1] = system: IL-2; human mononuclear cells; experiment: IL-2 activity of human mononuclear cell supernatants on CTLD cells (Example 8); format: cell-based; settings: control CTLD cells 3,500
# Procedure: Human mononuclear cells were obtained as described above and cultured for 72 hours at a concentration of 10^6 cells/ml enriched RPMI, in the presence of varying concentrations of the compound of Example 1. Culture supernatants were collected, centrifuged and tested for IL-2 activity by using 50% of the volume of the supernatant assaying their ability to support the proliferation of the IL-2 dependent cell line CTLD.
# IL-2 = experiment: Oral administration: induction of lymphokines, IL-2 content of spleen cell supernatants (Example 13); format: in vivo, Balb-C mice; settings: for IL-2, percent increase as compared to control: 4 days
# Procedure: The water solution was prepared by dissolving the compounds in PBS at a concentration of 50 μg/ml PBS and diluting the resulting solution to the desired concentration. The compounds were administered over a 4 day period. The exact amount of liquid intake was recorded daily. […] The cells were incubated at a concentration of 10^7 cells/ml in enriched RPMI containing 2 μg/ml of con-A for 24 hours at 37° C. The supernatants were collected and tested for IL-2 content.
# After 24 hours the mice were sacrificed and the spleens were processed as described above.
# [2] = system: IL-2; human mononuclear cells; experiment: IL-2 production by human mononuclear cells of normal donors and systemic lupus patients, with or without PHA (Example 20); format: cell-based
# Procedure: Using the procedure of Example 4, human mononuclear cells were tested for their ability to produce IL-2 after induction with PHA or in unstimulated cells from normal donors and from patients suffering from systemic lupus erthyrematous. The IL-2 content was tested according to the procedure of Example 3 using the CTLD IL-2 dependent cell line.
# *Dilution of 1 part of 0.2 ml of PBS containing 5 μg of compound of Ex
# **CPM × 10^-3 of ^3 H Thymidine of 5 × 10^4 CTLD
# cells in presence of 1:2 dilution of the supernatants as in Ex. 3. PG,4
# West Nile virus (WNV) [3] = experiment: West Nile virus infection in mice (Example 22); format: in vivo, ICR mice
# Procedure: The effect of the compound of Example 1 on an infection with West Nile virus (WNV) was determined. WNV is a toga virus of the flavivirus group, a positive single stranded RNA virus, which when injected IP to mice usually kills them within 5-8 days as a result of extensive damage to the central nervous system. For this study ICR mice (3 wks of age) were injected IP with the virus at the concentration of 10^3 or 10^4 LD 50 units/mouse. Injections of 10 μg/0.2 ml PBS/mouse of the compound of Ex. 1 were given on day -1 (one day prior to injection of virus) and 6 days after injection of virus.
# In a second experiment, mice were injected with 10^3 IPLD50 virus and received injections of the compound of Example 1 (1 μg/0.2 ml PBS/mouse) on days -1, 1, 2 and 4.
# West Nile virus (WNV) [4] = experiment: WNV yield in mouse macrophage cultures (Example 23); format: cell-based, WNV in ICR mouse macrophages; settings: for Virus Yield (PFU/ml): virus alone 2 × 10^4 /ml
# Procedure: Varying amounts of the compound of Example 1 (5 μg, 1 μg, 0.1 μg) were incubated with a monolayer of mouse macrophages for 24 h. […] All cultures were then infected with 10^4 PFU/plate. After 72 h incubation the supernatants were collected and the virus was titrated against Vera cells.
# mice = experiment: Preliminary toxicity studies in mice; format: in vivo; settings: 6 week old mice
# Procedure: The compounds may be used as anti-bacterial or anti-viral agents in plants or in animals. Virus infections such as West Nile virus infections in mice are susceptible to the compound of the Example 1 at a dose of 10 μg/day/mouse. Plant bacterial infections such as crown gall caused by Agrobacterium tumefaciens may be treated or prevented by the application of a 0.1% solution of compounds of the invention.
compound,measurement,setting,value
Cl[Te](Cl)(Cl)c1ccccc1 [PhTeCl3],Spleen Cells (cpm),IL-2; spleen cells,"18,000 cpm"
Ph2 TeCl,Spleen Cells (cpm),IL-2; spleen cells,"2,100 cpm"
Cl[TeH]1(Cl)(Cl)OCCO1 [Example 1],mortality results for group (b),fibrosarcoma cells,0%
same,IL-2 (cpm),IL-2; mouse spleen cells; 5 pg,"12,000 cpm"
same,IL-2 (cpm),IL-2; mouse spleen cells; 50 pg,"38,000 cpm"
same,IL-2 (cpm),IL-2; mouse spleen cells; 500 pg,"30,000 cpm"
same,IL-2 (cpm),IL-2; mouse spleen cells; 5 ng,"15,000 cpm"
same,IL-2 (cpm),IL-2; mouse spleen cells; 50 ng,"6,000 cpm"
same,IL-2 (cpm),IL-2; mouse spleen cells; 500 ng,"5,000 cpm"
same,IL-2 (cpm),IL-2; mouse spleen cells; 5 μg,"5,000 cpm"
same,IL-2 (cpm),IL-2; mouse spleen cells; 50 μg,"5,000 cpm"
same,CSF (colonies/dish),CSF; mouse spleen cells; 5 pg,140 colonies/dish
same,CSF (colonies/dish),CSF; mouse spleen cells; 50 pg,260 colonies/dish
same,CSF (colonies/dish),CSF; mouse spleen cells; 5 ng,120 colonies/dish
same,CSF (colonies/dish),CSF; mouse spleen cells; 50 ng,75 colonies/dish
same,CSF (colonies/dish),CSF; mouse spleen cells; 500 ng,25 colonies/dish
same,CSF (colonies/dish),CSF; mouse spleen cells; 5 μg,5 colonies/dish
same,CSF (colonies/dish),CSF; mouse spleen cells; 50 μg,2 colonies/dish
same,"IL-2 activity, Counts per minute",[1]; 1 ng,"11,000 Counts per minute"
same,"IL-2 activity, Counts per minute",[1]; 10 ng,"1,500 Counts per minute"
same,"IL-2 activity, Counts per minute",[1]; 1 μg,250 Counts per minute
same,"IL-2 activity, Counts per minute",[1]; 100 μg,280 Counts per minute
same,"IL-2, percent increase as compared to control",IL-2; 1 μg/ml drinking water,50%
same,inducing lymphokine production,IL-2; given in dry form or when hydrolyzed in an aqueous diluent,active for inducing lymphokine production
same,"IL-2 production, CPM × 10^-3 of 3H thymidine","[2]; SLE, PHA +, 5 μg 0.2 ml PBS",6.3 CPM × 10^-3 and 8.2 CPM × 10^-3 and 4.1 CPM × 10^-3
same,"IL-2 production, CPM × 10^-3 of 3H thymidine","[2]; SLE, PHA +, 1:100 PBS",24.0 CPM × 10^-3
same,"IL-2 production, CPM × 10^-3 of 3H thymidine","[2]; SLE, PHA -, 5 μg 0.2 ml PBS",2.0 CPM × 10^-3 and 2.4 CPM × 10^-3
same,"IL-2 production, CPM × 10^-3 of 3H thymidine","[2]; normal, PHA -, 5 μg 0.2 ml PBS",2.3 CPM × 10^-3 and 2.1 CPM × 10^-3
same,West Nile virus infections in mice,West Nile virus (WNV) [3]; 10 μg/day/mouse,susceptible
same,animals remained alive after 8 days,"West Nile virus (WNV) [3]; 10^3 or 10^4 LD50 virus, 10 μg/mouse",three out of five
same,# Alive/Total Animals,"West Nile virus (WNV) [3]; Table A, no virus (0), compound alone",6/6
same,further survival of the remaining three mice,"West Nile virus (WNV) [3]; second experiment, after day 8",Two out of the remaining three survived an additional 8 days; also recorded: the third remained alive without any manifestations of clinical symptoms
same,# Alive/Total,"West Nile virus (WNV) [3]; second experiment, day 8, 10^3 IPLD50 virus, 1 μg/mouse on days -1, 1, 2 and 4, virus alone 0/8",3 out of 5 and 3/5
same,# Alive/Total,"West Nile virus (WNV) [3]; second experiment, day 8, compound alone, no virus",5/5
same,reduction in virus yield,West Nile virus (WNV) [4]; 0.1 μg,ten
same,Virus Yield (PFU/ml),West Nile virus (WNV) [4]; 0.1 μg/plate,2 × 10^3 PFU/ml
same,Virus Yield (PFU/ml),West Nile virus (WNV) [4]; 1 μg/plate,5 × 10^2 PFU/ml
same,LD50,mice,300 ug./25 g of body weight
O=C(O[Te](OC(=O)c1ccccc1)(c1ccccc1)c1ccccc1)c1ccccc1 [Ph2 Te(OCOPh)2],Spleen Cells (cpm),IL-2; spleen cells,"4,300 cpm"
Cl[Te](Cl)(c1ccccc1)c1ccccc1 [Ph2 TeCl2],Spleen Cells (cpm),IL-2; spleen cells,"2,300 cpm"
CC(=O)O[Te](OC(C)=O)(c1ccccc1)c1ccccc1 [Ph2 Te(OCOCH3)2],Spleen Cells (cpm),IL-2; spleen cells,"3,500 cpm"
Cl[Te]1(Cl)OCCO1 [Example 2],"IL-2, percent increase as compared to control",IL-2; 1 μg/ml drinking water,30%
same,"IL-2, percent increase as compared to control",IL-2; 25 μg/ml drinking water,35%
same,Spleen Cells (cpm),IL-2; spleen cells,"18,000 cpm"
